Results on 1 molecule are retold here after publication PMC5382172 (Frontiers in Molecular Neuroscience, 2017).

Test [1] deals with T1, GluClαWT/βWT receptor (Caenorhabditis elegans, UniProt G5EBR3+Q17328).
T1 construct: entry codes of the full-length subunits used in this study; expressed in transfected cells; host or cells: CHO cells, transient co-transfection 1:1, pcDNA3.1
T1 sequence (G5EBR3 21-461): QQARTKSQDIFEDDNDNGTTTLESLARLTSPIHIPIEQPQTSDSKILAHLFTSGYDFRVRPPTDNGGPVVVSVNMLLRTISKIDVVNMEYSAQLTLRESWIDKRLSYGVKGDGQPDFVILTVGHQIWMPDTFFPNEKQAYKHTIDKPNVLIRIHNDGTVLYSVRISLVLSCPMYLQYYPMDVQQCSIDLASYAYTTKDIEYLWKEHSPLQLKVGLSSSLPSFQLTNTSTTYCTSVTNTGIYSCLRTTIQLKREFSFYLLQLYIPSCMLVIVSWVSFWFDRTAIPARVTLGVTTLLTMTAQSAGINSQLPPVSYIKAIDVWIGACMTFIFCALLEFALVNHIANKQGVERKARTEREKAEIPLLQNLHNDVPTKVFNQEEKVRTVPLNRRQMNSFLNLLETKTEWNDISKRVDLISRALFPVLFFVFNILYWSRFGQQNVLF
T1 sequence (Q17328 23-434): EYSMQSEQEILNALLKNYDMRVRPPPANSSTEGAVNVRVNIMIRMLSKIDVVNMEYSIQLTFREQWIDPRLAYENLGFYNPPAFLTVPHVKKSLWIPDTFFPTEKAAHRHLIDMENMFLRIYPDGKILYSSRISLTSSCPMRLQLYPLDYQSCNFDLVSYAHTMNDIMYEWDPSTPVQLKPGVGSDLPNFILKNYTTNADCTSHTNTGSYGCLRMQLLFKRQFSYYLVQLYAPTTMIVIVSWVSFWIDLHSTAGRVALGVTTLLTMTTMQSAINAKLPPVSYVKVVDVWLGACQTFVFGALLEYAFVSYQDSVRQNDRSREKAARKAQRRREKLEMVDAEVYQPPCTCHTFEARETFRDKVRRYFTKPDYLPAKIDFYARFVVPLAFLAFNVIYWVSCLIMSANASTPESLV
Further details: method as in Degani-Katzav et al., [2016]. Particulars: CHO cells co-transfected with WT α and β subunits; ref Degani-Katzav et al., [2016]; cited from earlier work.

The target of another test is T2, GluClαP192Y/βWT receptor (Caenorhabditis elegans, UniProt G5EBR3+Q17328, P192Y).
T2 construct: entry codes of the full-length subunits used in this study; expressed in transfected cells; host or cells: CHO cells, transient co-transfection 1:1, pcDNA3.1
T2 sequence (G5EBR3 21-461 P192Y, one chain of several): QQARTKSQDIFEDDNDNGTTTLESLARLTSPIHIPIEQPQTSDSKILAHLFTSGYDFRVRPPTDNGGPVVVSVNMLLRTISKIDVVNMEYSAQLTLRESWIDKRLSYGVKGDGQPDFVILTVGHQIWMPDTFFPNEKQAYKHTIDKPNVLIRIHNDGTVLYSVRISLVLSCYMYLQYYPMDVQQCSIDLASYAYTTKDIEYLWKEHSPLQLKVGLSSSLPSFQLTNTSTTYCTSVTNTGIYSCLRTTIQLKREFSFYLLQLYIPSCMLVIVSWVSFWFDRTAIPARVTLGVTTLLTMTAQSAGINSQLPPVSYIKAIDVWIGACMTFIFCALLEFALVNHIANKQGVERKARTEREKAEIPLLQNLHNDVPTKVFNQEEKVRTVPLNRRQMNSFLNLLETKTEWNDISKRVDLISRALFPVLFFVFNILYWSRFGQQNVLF
Put plainly: Whole-cell patch clamp in CHO cells, GluClαP192Y/βWT receptor. In kind it is cell-based. As to conditions: +60 mV. Here is the method:
(§1) Chinese hamster ovary (CHO) cells were cultured as previously (Bar-Lev et al., [2011]) in Dulbecco’s Modified Eagle Medium (DMEM) containing 10% fetal calf serum, 2 mM glutamax, 100 Units/ml penicillin G and 100 μg/ml streptomycin, and grown in 5% CO2 at 37°C under 90%–95% humidity. The cells were seeded on glass coverslips (13-mm diameter) placed in a 24-multiwell plate. […] For the expression of GluCl receptors, cells were transiently co-transfected with pcDNA3.1 plasmids containing the ORFs of interest using transit-LT1 transfection reagent (Mirus, Madison, WI, USA), according to the manufacturer’s protocol. The cDNAs encoding the C. elegans GluClα (GLC-1) or its mutated versions and the GluClβ (GLC-2) subunits (200–600 ng per well) were used at 1:1 ratio. The pIRES-CD8 plasmid (200 ng per well) was added to enable the visualization of the expressing cells by beads coated with anti-CD8 antibodies (Invitrogen). […]
(§2) Whole-cell patch clamp recordings were performed as described previously (Bar-Lev et al., [2011]) in CHO cells that were prepared as detailed above. […] The currents were measured with an Axopatch 200B patch-clamp amplifier (Molecular Devices, Sunnyvale, CA, USA) and a Digidata 1440A interface (Molecular Devices). […]

The target of a further test is T3, GluClαE273R/βWT receptor (Caenorhabditis elegans, UniProt G5EBR3+Q17328, E273R).
T3 construct: entry codes of the full-length subunits used in this study; expressed in transfected cells; host or cells: CHO cells, transient co-transfection 1:1, pcDNA3.1
T3 sequence (G5EBR3 21-461 E273R, one chain of several): as the sequence (G5EBR3 21-461 P192Y, one chain of several) above, with Y172P, E253R counted along it
Put plainly: Whole-cell patch clamp in CHO cells, GluClαE273R/βWT receptor. Particulars: +60 mV. In kind it is cell-based. Here is the method: as §1, §2

For test [2], the target named is T1, GluClαWT/βWT receptor. As to the kind of experiment: Whole-cell patch clamp in CHO cells, GluClαWT/βWT receptor. In kind it is cell-based. Here is the method:
(§3) Chinese hamster ovary (CHO) cells were cultured as previously (Bar-Lev et al., [2011]) in Dulbecco’s Modified Eagle Medium (DMEM) containing 10% fetal calf serum, 2 mM glutamax, 100 Units/ml penicillin G and 100 μg/ml streptomycin, and grown in 5% CO2 at 37°C under 90%–95% humidity. The cells were seeded on glass coverslips (13-mm diameter) placed in a 24-multiwell plate. […] For the expression of GluCl receptors, cells were transiently co-transfected with pcDNA3.1 plasmids containing the ORFs of interest using transit-LT1 transfection reagent (Mirus, Madison, WI, USA), according to the manufacturer’s protocol. The cDNAs encoding the C. elegans GluClα (GLC-1) or its mutated versions and the GluClβ (GLC-2) subunits (200–600 ng per well) were used at 1:1 ratio. The pIRES-CD8 plasmid (200 ng per well) was added to enable the visualization of the expressing cells by beads coated with anti-CD8 antibodies (Invitrogen). For high-level expression of the GluClαF276A/βWT mutant receptor in experiments assigned to determine its IVM-EC50, we used the X-tremeGENE HP DNA Transfection Reagent (Roche Life Science). Recordings were performed 72–96 h following the transfection.
(§4) Whole-cell patch clamp recordings were performed as described previously (Bar-Lev et al., [2011]) in CHO cells that were prepared as detailed above. The normal external solution (NES) contained (in millimolar): 140 NaCl, 2.8 KCl, 2 CaCl2, 2 MgCl2, 10 glucose and 10 HEPES, adjusted to pH 7.35 with NaOH (310 mOsm/L). The pipette solution contained (in millimolar): 130 KCl, 4 MgCl2, 4 Na2ATP, 1 EGTA and 10 HEPES, adjusted to pH 7.35 with KOH (290 mOsm/L). The osmolarity of these solutions was maintained by adding sucrose. The electrode resistance was 6–10 MΩ when filled with the pipette solution. External solutions were applied onto the cell by using the VC-77SP fast-step system (Warner Instruments, Hamden, CT, USA) combined with N2 pressure of 3–4 psi to produce laminar flow of the external solution onto the patched cell. All measurements were performed at room temperature. The currents were measured with an Axopatch 200B patch-clamp amplifier (Molecular Devices, Sunnyvale, CA, USA) and a Digidata 1440A interface (Molecular Devices). Acquisition of recording data was performed at 2.5 kHz and recordings were low-pass filtered at 1 kHz, through a four-pole Bessel filter. The pClamp 10 software (Molecular Devices) was used for data acquisition. […] Five-hundred milliseconds after the application started (which is also after the current reached to its peak at −60 mV), the voltage was stepped from −60 mV to −80 mV for 50 ms followed by a 250-ms-long voltage ramp ranging from −80 mV to +80 mV.
(§5) Dose-response curves were fitted to the data points by a nonlinear regression using the Hill Equation 1,
(The patch-clamp technique gives a direct electrical read-out from membranes.)

Another test addresses T4, GluClαY194R/βWT receptor (Caenorhabditis elegans, UniProt G5EBR3+Q17328, Y194R).
T4 construct: entry codes of the full-length subunits used in this study; expressed in transfected cells; host or cells: CHO cells, transient co-transfection 1:1, pcDNA3.1
As to the kind of experiment: Whole-cell patch clamp in CHO cells, GluClαY194R/βWT receptor. In kind it is cell-based. Particulars: +60 mV. Here is the method:
as §1, §2

A further test has as its target T5, GluClαF276W/βWT receptor (Caenorhabditis elegans, UniProt G5EBR3+Q17328, F276W).
T5 construct: entry codes of the full-length subunits used in this study; expressed in transfected cells; host or cells: CHO cells, transient co-transfection 1:1, pcDNA3.1
As to the kind of experiment: Whole-cell patch clamp in CHO cells, GluClαF276W/βWT receptor. In kind it is cell-based. As to conditions: +60 mV. Here is the method: as §1, §2

A further test has as its target T6, GluClαP192M/βWT receptor (Caenorhabditis elegans, UniProt G5EBR3+Q17328, P192M).
T6 construct: entry codes of the full-length subunits used in this study; expressed in transfected cells; host or cells: CHO cells, transient co-transfection 1:1, pcDNA3.1
As to the kind of experiment: Whole-cell patch clamp in CHO cells, GluClαP192M/βWT receptor. In kind it is cell-based. Particulars: +60 mV. The method, then:
as §1, §2

In a further test the target is T7, GluClαF276A/βWT receptor (Caenorhabditis elegans, UniProt G5EBR3+Q17328, F276A).
T7 construct: entry codes of the full-length subunits used in this study; expressed in transfected cells; host or cells: CHO cells, transient co-transfection, pcDNA3.1 (X-tremeGENE HP for the IVM-EC50 experiments)
T7 sequence (G5EBR3 21-461 F276A, one chain of several): as the sequence (G5EBR3 21-461 P192Y, one chain of several) above, with Y172P, F256A counted along it
Put plainly: Whole-cell patch clamp in CHO cells, GluClαF276A/βWT receptor. In kind it is cell-based. The method, then: as §3, §4, §5

Test [3] deals with T8, GluClα[SSS→GSD]/βWT receptor (Caenorhabditis elegans, UniProt G5EBR3+Q17328, S236G/S238D).
T8 construct: entry codes of the full-length subunits used in this study; expressed in transfected cells; host or cells: CHO cells, transient co-transfection 1:1, pcDNA3.1
T8 sequence (G5EBR3 21-461 S236G/S238D, one chain of several): as the sequence (G5EBR3 21-461 P192Y, one chain of several) above, with Y172P, S216G, S218D counted along it
As to the kind of experiment: Whole-cell patch clamp in CHO cells, GluClα[SSS→GSD]/βWT receptor. In kind it is cell-based. Particulars: +60 mV. Here is the method:
as §1, §2

Test [4] addresses T9, GluClβWT (GLC-2) homomeric receptor (Caenorhabditis elegans, UniProt Q17328).
T9 construct: entry codes of the full-length subunits used in this study; expressed in transfected cells; host or cells: CHO cells, transient transfection, pcDNA3.1
T9 sequence (Q17328 23-434): T1 sequence (Q17328 23-434)
Particulars: CHO cells, βWT alone, ref Degani-Katzav et al., cited from earlier work.

In test [5] the target is T10, GluClαWT (GLC-1) homomeric receptor (Caenorhabditis elegans, UniProt G5EBR3).
T10 construct: entry codes of the full-length subunits used in this study; expressed in transfected cells; host or cells: CHO cells, transient transfection, pcDNA3.1
T10 sequence (G5EBR3 21-461): T1 sequence (G5EBR3 21-461)
Further details: method as in Degani-Katzav et al., [2016]. As to conditions: CHO cells, αWT alone; ref Degani-Katzav et al., [2016]; cited from earlier work.

Another test addresses T11, GluClαP192E/βWT receptor (Caenorhabditis elegans, UniProt G5EBR3+Q17328, P192E).
T11 construct: entry codes of the full-length subunits used in this study; expressed in transfected cells; host or cells: CHO cells, transient co-transfection 1:1, pcDNA3.1
As to the kind of experiment: Whole-cell patch clamp in CHO cells, GluClαP192E/βWT receptor. Particulars: +60 mV. In kind it is cell-based. The method, then:
as §1, §2

Structures are written as SMILES.

T4 sequence (G5EBR3 21-461 Y194R, one chain of several): as the sequence (G5EBR3 21-461 P192Y, one chain of several) above, with Y172P, Y174R counted along it
T5 sequence (G5EBR3 21-461 F276W, one chain of several): as the sequence (G5EBR3 21-461 P192Y, one chain of several) above, with Y172P, F256W counted along it
T11 sequence (G5EBR3 21-461 P192E, one chain of several): as the sequence (G5EBR3 21-461 P192Y, one chain of several) above, with Y172E counted along it
T6 sequence (G5EBR3 21-461 P192M, one chain of several): as the sequence (G5EBR3 21-461 P192Y, one chain of several) above, with Y172M counted along it

In the case of `N[C@@H](CCC(=O)O)C(=O)O` [Glu, glutamate], at GluClαWT/βWT receptor [1], the “response to Glu” value is given as “robust responses”. Besides, the “Glu activation properties nH (Hill coefficient)” value at GluClαP192Y/βWT receptor came out at 1.5 ± 0.1; at GluClαE273R/βWT receptor, 1.5 ± 0.1; at GluClαWT/βWT receptor [2] (CHO cells, +60 mV), 1.6 ± 0.1; on GluClαY194R/βWT receptor, 1.5 ± 0.1; on GluClαF276W/βWT receptor, 1.5 ± 0.1; at GluClαP192M/βWT receptor, 1.6 ± 0.1. For the same molecule, the “Glu activation properties nH (Hill coefficient)” value on GluClαF276A/βWT receptor (CHO cells, +60 mV) was 1.3 ± 0.1; in test [3] it was 1.3 ± 0.1; at GluClαP192E/βWT receptor it was 1.5 ± 0.1. The receptor population activated on GluClαWT/βWT receptor [2] (0.3 mM Glu, calculated from the Glu dose-response curve) is reported as ~ 7%; on GluClαF276A/βWT receptor (1 mM Glu), ~ 5%. The “Hill coefficient of activation by Glu after pre-exposure to IVM” value at GluClαWT/βWT receptor [2] (pre-exposure to 7 nM IVM) came out at 1.2 ± 0.07; on GluClαF276A/βWT receptor (pre-exposure to 50 nM IVM), 1.5 ± 0.03. Further, the “cells responding to 100 mM Glu” value in test [4] (X-tremeGENE HP transfection, [2017]) is 4 of 46. Also, the “response to 10 mM Glu” value is listed as “very weak, rare responses” in test [4] ([2016]) and “very weak responses” in test [5].
